Results as given in US11272841B2, “Indicator fluids, systems, and methods for assessing movement of substances within, to or from a cerebrospinal fluid, brain or spinal cord compartment of a cranio-spinal cavity of a human” (BRAINWIDESOLUTIONS AS, priority 2017, dated 2022).

What was measured:
[1] = Gadobutrol concentration in blood at time points after gadobutrol was present in CSF (FIG. 1e-h); assay type: in vivo, human
Description: In test studies, the inventors measured concentrations of the indicator fluid gadobutrol in blood at different time points after indicator fluid was present in CSF. […] In FIG. 1e-h are provided examples of measurements of gadobutrol (indicator fluid) concentrations in blood. On the y-axis is shown the indicator fluid concentration level 119 in blood (i.e. concentration of gadobutrol measured in units mg/kg), and on x-axis the time 120 elapsed from gadobutrol was present within the CSF. The concentration level of gadobutrol was measured after different time points 120, including after 1-2 hours, 3-4 hours, 5-6 hours, 7-8 hours, 23-26 hours, and 46-49 hours, for different individuals.
With reference to FIG. 1e, trend plots of average values of gadobutrol concentrations in blood (mg/kg) are shown for individuals with intracranial hypotension 121 (symbol ♦; n=4), idiopathic intracranial hypertension 122 (symbol ●; n=1), idiopathic normal pressure hydrocephalus 123 (symbol ▴; n=1), cerebral cyst 124 (symbol O; n=4), and arachnoid cyst 125 (symbol ▪; n=4). The letter n refers to number of individuals within each group. […] Half-time of gadobutrol in blood is about 1.8 hours. It should be noted that the amount and time course of appearance of gadobutrol in blood differs for the various groups of individuals, related to the fact that the ability to remove substances from the cranio-spinal compartment varies between individuals. […] The concentrations may be determined after 24 or 48 hours or after any time point within 72 hours after the indicator fluid is present in CSF.
In FIG. 1f-h, the inventors provide some examples of measurements of indicator fluid (the MRI contrast agent gadobutrol) concentration level in blood at different time points after indicator fluid being present in CSF in three separate individuals. It should be noted that the invention gives no limitation regarding the method by which the blood concentration is measured. […]

[2] = Percentage change in normalized T1 signal unit ratios in FreeSurfer-segmented brain regions after intrathecal gadobutrol (Table 5, FIG. 14e-h); assay type: in vivo, human; conditions: for Percentage change in signal unit ratios: mean ± SD
Description: The alignment of longitudinal data is illustrated in FIG. 14c-d. When repeated MRIs are obtained proper alignment is necessary for use of segmentation tools. Otherwise, it is not possible to examine how signals within defined regions of interest change over time. […] The co-registered MRI 1409 show no good co-registration. In FIG. 14d is shown coronal T1 MRIs at Time 1 1410 and Time 2 1411, including co-registered MRIs 1412. In this latter case proper alignment is obtained. Methodology for alignment is established from prior art, as is methodology for segmentation of MRI acquisitions. The inventors have used the FreeSurfer software (version 6.0) (http://surfer.nmr.mgh.harvard.edu/) for segmentation and parcellation, and to measure how an indicator fluid present within CSF (the MRI contrast agent gadobutrol) changed the T1 SU. In this case, the MRI contrast agent was used as CSF tracer. The FreeSurfer software utilizes automated Talairach transformation 1402, and allows for segmentation of a wide range of brain regions, including the subcortical white matter and deep gray matter volumetric structures (including hippocampus, amygdala, caudate, putamen, ventricles).
Using prior art methodology for alignment and segmentation, changes in indication signals over time may be determined. This is further illustrated in Table 5. The results are from 8 individuals who underwent MRI for tentative idiopathic intracranial hypotension due to CSF leakage. A CSF leakage was identified in 3/8 individuals. Otherwise the individuals were healthy. Table 5 presents the percentage change in normalized T1 signals, i.e. indication signal ratios, over time, as compared to T1 weighted MRI without CSF tracer present. […] The MRI signal increase was significant at all main locations (Table 5). The determination of signal unit ratios was described with reference to FIG. 7.
Each image acquisition lasted 6 minutes and 29 seconds.
The inventors determined percentage change in signal units when indicator fluid was present in the CSF compartment, as compared to a point of time without any indicator fluid within the CSF compartment. Four different regions were examined, segmented using FreeSurfer, namely CSF (FIG. 14e), entorhinal cortex (FIG. 14f), hippocampus (FIG. 14g) and Limbic structures (FIG. 14h). The two cohorts of individuals included reference subjects who were close to healthy and a population with a subtype of dementia. For the CSF compartment (FIG. 14e) is shown percentage change in signal unit ratios 1413 versus time 1414, including trend plots for reference subjects 1415 and individuals with dementia 1416. […] Peak for reference subjects occurred after 6-9 hours while after 24 hours for the dementia population.

[3] = cited from earlier work

For `O=C([O-])CN1CCN(CC(=O)[O-])CCN([C@H](CO)[C@H](O)CO)CCN(CC(=O)[O-])CC1.[Gd+3]` (racemic) [gadobutrol], the “Time of maximum concentration in blood after gadobutrol present in CSF” value (“Time of maximum concentration in blood” below) ([1]; group trend plot: arachnoid cyst (n=4)) was 3 to 4 h, the “Time of maximum concentration in blood” value ([1]; group trend plot: cerebral cyst (n=4)) was 7 to 8 h and the “Time of maximum concentration in blood” value ([1]; group trend plots: intracranial hypotension (n=4), idiopathic intracranial hypertension (n=1), iNPH (n=1)) was 5 to 6 h. For the same molecule, the “Percentage change in signal unit ratios” value ([2]; Basal ganglia, 1.5-2 hours) was −3 ± 8%, the “Percentage change in signal unit ratios” value ([2]; Basal ganglia, 2-4 hours) was −6 ± 14% and the “Percentage change in signal unit ratios” value ([2]; Basal ganglia, 4-6 hours) was 1 ± 25%. The “Percentage change in signal unit ratios” value ([2]; Basal ganglia, 6-9 hours) was −4 ± 14%, the “Percentage change in signal unit ratios” value ([2]; Basal ganglia, 24 hours) was 4 ± 18% and the “Time of peak percentage change in signal unit ratios” value ([2]; CSF (FIG. 14e), reference subjects and dementia individuals) was 6 to 9 h. The “Percentage change in signal unit ratios” value ([2]; CSF [24], 1.5-2 hours after intrathecal gadobutrol, 8 individuals) was 16 ± 20%, the “Percentage change in signal unit ratios” value ([2]; CSF [24], 2-4 hours) was 101 ± 116% and the “Percentage change in signal unit ratios” value ([2]; CSF [24], 4-6 hours) was 354 ± 309%. For the same molecule, the “Percentage change in signal unit ratios” value ([2]; CSF [24], 6-9 hours) was 500 ± 421%, the “Percentage change in signal unit ratios” value ([2]; CSF [24], 24 hours) was 157 ± 164% and the “Percentage change in signal unit ratios” value ([2]; Cerebellar cortex, 1.5-2 hours) was 6 ± 6%. For the same molecule, the “Percentage change in signal unit ratios” value ([2]; Cerebellar cortex, 2-4 hours) was 12 ± 27%, the “Percentage change in signal unit ratios” value ([2]; Cerebellar cortex, 4-6 hours) was 45 ± 58% and the “Percentage change in signal unit ratios” value ([2]; Cerebellar cortex, 6-9 hours) was 67 ± 80%. For the same molecule, the “Percentage change in signal unit ratios” value ([2]; Cerebellar cortex, 24 hours) was 53 ± 47%, the “Percentage change in signal unit ratios” value ([2]; Cerebellar white matter, 1.5-2 hours) was 1 ± 9% and the “Percentage change in signal unit ratios” value ([2]; Cerebellar white matter, 2-4 hours) was −3 ± 14%. For the same molecule, the “Percentage change in signal unit ratios” value ([2]; Cerebellar white matter, 4-6 hours) was 3 ± 23%, the “Percentage change in signal unit ratios” value ([2]; Cerebellar white matter, 6-9 hours) was 2 ± 19% and the “Percentage change in signal unit ratios” value ([2]; Cerebellar white matter, 24 hours) was 15 ± 23%. The “Percentage change in signal unit ratios” value ([2]; Cerebral cortex (grey matter), 1.5-2 hours) was −3 ± 7%, the “Percentage change in signal unit ratios” value ([2]; Cerebral cortex (grey matter), 2-4 hours) was −1 ± 15% and the “Percentage change in signal unit ratios” value ([2]; Cerebral cortex (grey matter), 4-6 hours) was 26 ± 44%. The “Percentage change in signal unit ratios” value ([2]; Cerebral cortex (grey matter), 6-9 hours) was 44 ± 50%, the “Percentage change in signal unit ratios” value ([2]; Cerebral cortex (grey matter), 24 hours) was 52 ± 54% and the “Percentage change in signal unit ratios” value ([2]; Cerebral white matter, 1.5-2 hours) was −3 ± 9%. The “Percentage change in signal unit ratios” value ([2]; Cerebral white matter, 2-4 hours) was −1 ± 18%, the “Percentage change in signal unit ratios” value ([2]; Cerebral white matter, 4-6 hours) was 26 ± 40% and the “Percentage change in signal unit ratios” value ([2]; Cerebral white matter, 6-9 hours) was 34 ± 46%. For the same molecule, the “Percentage change in signal unit ratios” value ([2]; Cerebral white matter, 24 hours) was 27 ± 33%, the “Percentage change in signal unit ratios” value ([2]; Hippocampus, amygdala, accumbens, entorhinal, 1.5-2 hours) was −2 ± 7% and the “Percentage change in signal unit ratios” value ([2]; Hippocampus, amygdala, accumbens, entorhinal, 2-4 hours) was −1 ± 15%. The “Percentage change in signal unit ratios” value ([2]; Hippocampus, amygdala, accumbens, entorhinal, 4-6 hours) was 28 ± 38%, the “Percentage change in signal unit ratios” value ([2]; Hippocampus, amygdala, accumbens, entorhinal, 6-9 hours) was 43 ± 43% and the “Percentage change in signal unit ratios” value ([2]; Hippocampus, amygdala, accumbens, entorhinal, 24 hours) was 42 ± 39%. The “Percentage change in signal unit ratios” value ([2]; Thalamus, 1.5-2 hours) was −2 ± 8%, the “Percentage change in signal unit ratios” value ([2]; Thalamus, 2-4 hours) was −4 ± 15% and the “Percentage change in signal unit ratios” value ([2]; Thalamus, 4-6 hours) was 5 ± 26%. For the same molecule, the “Percentage change in signal unit ratios” value ([2]; Thalamus, 6-9 hours) was 2 ± 18%, the “Percentage change in signal unit ratios” value ([2]; Thalamus, 24 hours) was 11 ± 21% and the “Time of peak percentage change in signal unit ratios” value ([2]; entorhinal cortex, dementia population) was 24 h. The “Time of peak percentage change in signal unit ratios” value ([2]; entorhinal cortex, reference subjects) was 6 to 9 h, the “Time of peak percentage change in signal unit ratios” value ([2]; hippocampus, dementia cohort) was 24 h and the “Time of peak percentage change in signal unit ratios” value ([2]; hippocampus, reference subjects) was 6 to 9 h. The “Time of peak percentage change in signal unit ratios” value ([2]; limbic structures, dementia cohort) was 24 h, the “Time of peak percentage change in signal unit ratios” value ([2]; limbic structures, reference subjects) was 6 to 9 h and the “Half-time of gadobutrol in blood” value [3] was “about 1.8 hours”.
